# Assay: xn = mol fraction of the nth substance listed
# Conditions: 298.15 K; 101 kPa; Liquid; Dispersion; x1 = 0
row,binary diffusion coefficient [m2/s],Compound
1,5.32e-10,"OCCCCCc1ccccc1 [1-pentanol, 5-phenyl-] + O"
2,8.3e-10,OCc1ccccc1 [benzenemethanol] + O
3,7.22e-10,OCCCc1ccccc1 [3-phenyl-1-propanol] + O
4,6.64e-10,OCCCCc1ccccc1 [4-phenyl-1-butanol] + O
5,7.92e-10,OCCc1ccccc1 [2-phenylethanol] + O

# Source: the NIST ThermoML archive (doi:10.1021/je900967j)
